From US4304864A, “Long-chain acyl-coenzyme-A synthetase” (Mitsubishi Chemical Industries, Limited, priority 1978, dated 1981)
Entries after “also recorded” stand apart in the source; their conditions may differ.

Legend:
acyl-CoA synthetase I [1] = assay: Specificity for acyl acceptors (Vmax and apparent Km); format: biochemical, Candida lipolytica; settings: for utilization as acyl acceptor: at conc. up to 5 mM; for Km / Vmax: acyl acceptor; for Vmax: CoA designated as 100%
Procedure: (§1) The sssay of enzyme activity was carried out by the Banis and Tove method. (See Biochemica et Biophysica Acta, Vol. 348, pages 210-220 (1974)). According to this method, the reaction solution contained 20 μmol of Tris-HCl buffer (pH 7.5), 3 μmol of ATP, 2 μmol of MgCl2, 1.0 μmol of dithiothreitol, 0.2 μmol of [U-^14 C] potassium palmitate (0.2 mCi/mmol), 0.32 μmol of surfactant T, 0.2 μmol of CoA and an aliquot of the enzyme solution in a total volume of 0.2 ml. After a 5 minute preincubation, either the CoA or the enzyme solution which had been kept from incorporating in the reaction solution was added to initiate the reaction (at 25° C.). At the end of a 10 minute reaction period, 2.5 ml of isopropanol-n-heptane-1 M sulfuric acid (40:10:1) was added to stop the reaction. The solution was then extracted with heptane to remove any unreacted free fatty acid. After the aqueous layer was washed twice each with 2 ml of heptane containing 8 mg of palmitic acid, the radioactivity of the aqueous layer was measured.
(§2) The standard reaction solution contained 100 μmol of Tris-HCl buffer (pH 7.4), 5 μmol of dithiothreitol, 1.6 μmol of surfactant T, 7.5 μmol of ATP, 10 μmol of MgCl2, 0.25 μmol of potassium oleate, 1 μmol of CoA, 0.2 μmol of potassium phosphoenolpyruvate, 0.15 μmol of NADH, 20 μg of myokinase, 30 μg of pyruvate kinase, 30 μg of lactate dehydrogenase and a certain amount of acyl-CoA synthetase per ml of the solution. A reaction solution containing all the above components except CoA was preincubated at 25° C. for one minute. The reaction was then initiated by the addition of CoA, and the rate of decrease in optical density at 340 nm which was attributed to decrease in amount of NADH was determined.
The Vmax values and the apparent Km values were as follows: […]

acyl-CoA synthetase [2] = assay: Substrate specificity of acyl-CoA synthetase (fatty acids); format: biochemical, Candida lipolytica; settings: for Activity (μmol acyl-CoA/min.): fatty acid concentration 0.25 mM
Procedure: as §1, §2

acyl-CoA synthetase I [3] = assay: Specificity for nucleoside-5'-triphosphate; format: biochemical, Candida lipolytica; settings: for effectiveness as nucleoside-5'-triphosphate: 7.5 mM and 15 mM
Procedure: as §2
(ii) Specificity for nucleoside-5'-triphosphate: Only ATP and αATP were effective. At concentrations of 7.5 mM and 15 mM, the activities measured with αATP were 78% and 61%, respectively, of those measured with ATP.

acyl-CoA synthetase [4] = assay: Substrate specificity of acyl-CoA synthetase (fatty acids); format: biochemical, Candida lipolytica; settings: fatty acid concentration 0.125 mM
acyl-CoA synthetase [5] = assay: Activator and inhibitor of the enzyme; format: biochemical, Candida lipolytica
[6] = most purified form, prior art; cited from earlier work

O[C@H](CS)[C@H](O)CS (racemic) [Dithiothreitol]
utilization as acyl acceptor (acyl-CoA synthetase I [1]): Not utilized

CC(C)(COP(=O)(O)OP(=O)(O)OC[C@H]1O[C@@H](n2cnc3c2ncn2ccnc32)[C@H](O)[C@@H]1OP(=O)(O)O)[C@@H](O)C(=O)NCCC(=O)NCCS [1:^6 N-Etheno-CoA]
Km (acyl-CoA synthetase I [1]): 500 µM | Vmax (acyl-CoA synthetase I [1]): 40%

CC(C)(COP(=O)(O)O)[C@@H](O)C(=O)NCCC(=O)NCCS [4'-Phosphopantetheine]
Km (acyl-CoA synthetase I [1]): 3300 µM | Vmax (acyl-CoA synthetase I [1]): 63%

O=C(O)CCCCCCCCCCCCCCCO [16-Hydroxypalmitic acid]
effectiveness as substrate of the enzyme (acyl-CoA synthetase [2]): essentially ineffective | Activity (μmol acyl-CoA/min.) (acyl-CoA synthetase [2]): 1.5 μmol acyl-CoA/min.

Nc1ncnc2c1ncn2[C@@H]1O[C@H](COP(=O)(O)OP(=O)(O)OP(=O)(O)O)[C@@H](O)[C@H]1O [ATP]
effectiveness as nucleoside-5'-triphosphate (acyl-CoA synthetase I [3]): effective

CCCCCCCCCCCCCCCCCCCC(=O)O [Arachidic acid]
Activity (μmol acyl-CoA/min.) (acyl-CoA synthetase [2]): 0.6 μmol acyl-CoA/min.

CCCCC/C=C\C/C=C\C/C=C\C/C=C\CCCC(=O)O [Arachidonic acid]
Activity (μmol acyl-CoA/min.) (acyl-CoA synthetase [4]): 1.3 μmol acyl-CoA/min.

Nc1ccn([C@@H]2O[C@H](COP(=O)(O)OP(=O)(O)OP(=O)(O)O)[C@@H](O)[C@H]2O)c(=O)n1 [CTP]
effectiveness as nucleoside-5'-triphosphate (acyl-CoA synthetase I [3]): essentially ineffective

CC(C)(COP(=O)(O)OP(=O)(O)OC[C@H]1O[C@@H](n2cnc3c(N)ncnc32)[C@H](O)[C@@H]1OP(=O)(O)O)[C@@H](O)C(=O)NCCC(=O)NCCS [CoA]
Km (acyl-CoA synthetase I [1]): 42 µM | Vmax (acyl-CoA synthetase I [1]): 100%

[Cu+2] [Cu^++]
activation or inhibition of the enzyme (acyl-CoA synthetase [5]): inhibitor | inhibition of the enzyme action (acyl-CoA synthetase [5]; concentration of 15 mM): completely inhibits

CC(C)(COP(=O)(O)OP(=O)(O)OC[C@H]1O[C@@H](n2cnc3c(N)ncnc32)[C@H](O)[C@@H]1O)[C@@H](O)C(=O)NCCC(=O)NCCS [Dephospho-CoA]
Km (acyl-CoA synthetase I [1]): 110 µM | Vmax (acyl-CoA synthetase I [1]): 70%

O=C(O)CN(CCN(CC(=O)O)CC(=O)O)CC(=O)O [EDTA]
activation or inhibition of the enzyme (acyl-CoA synthetase [5]): inhibitor; also recorded: inhibits

Nc1nc2c(ncn2[C@@H]2O[C@H](COP(=O)(O)OP(=O)(O)OP(=O)(O)O)[C@@H](O)[C@H]2O)c(=O)[nH]1 [GTP]
effectiveness as nucleoside-5'-triphosphate (acyl-CoA synthetase I [3]): essentially ineffective

N[C@@H](CCC(=O)N[C@@H](CS)C(=O)NCC(=O)O)C(=O)O [Glutathione]
utilization as acyl acceptor (acyl-CoA synthetase I [1]): Not utilized

CCCCCCCCCCCCCCCCC(=O)O [Heptadecanoic acid]
Activity (μmol acyl-CoA/min.) (acyl-CoA synthetase [4]): 22.3 μmol acyl-CoA/min.

O=C(O)CCCCCCCCCCCCCCC(=O)O [Hexadecanedioic acid]
effectiveness as substrate of the enzyme (acyl-CoA synthetase [2]): essentially ineffective | Activity (μmol acyl-CoA/min.) (acyl-CoA synthetase [2]): 0.6 μmol acyl-CoA/min.

N[C@@H](CS)C(=O)O [L-Cysteine]
utilization as acyl acceptor (acyl-CoA synthetase I [1]): Not utilized

CCCCCCCCCCCC(=O)O [Lauric acid]
Activity (μmol acyl-CoA/min.) (acyl-CoA synthetase [2]): 1.0 μmol acyl-CoA/min.

CCCCC/C=C\C/C=C\CCCCCCCC(=O)O [Linoleic acid]
Activity (μmol acyl-CoA/min.) (acyl-CoA synthetase [2]): 19.7 μmol acyl-CoA/min.

CC/C=C\C/C=C\C/C=C\CCCCCCCC(=O)O [Linolenic acid]
Activity (μmol acyl-CoA/min.) (acyl-CoA synthetase [2]): 22.0 μmol acyl-CoA/min.

[Mg+2] [Mg^++]
activation or inhibition of the enzyme (acyl-CoA synthetase [5]): activator; also recorded: activated

CCCCCCCCCCCCCC(=O)O [Myristic acid]
Activity (μmol acyl-CoA/min.) (acyl-CoA synthetase [2]): 20.8 μmol acyl-CoA/min.

CC(=O)NCCS [N-Acetylcysteamine]
utilization as acyl acceptor (acyl-CoA synthetase I [1]): Not utilized

CCCCCCCCCCCCCCCCCCC(=O)O [Nonadecanoic acid]
Activity (μmol acyl-CoA/min.) (acyl-CoA synthetase [2]): 1.7 μmol acyl-CoA/min.

CCCCCCCC/C=C\CCCCCCCC(=O)O [Oleic acid]
Activity (μmol acyl-CoA/min.) (acyl-CoA synthetase [2]): 23.8 μmol acyl-CoA/min.

CCCCCCCCCCCCCCCC(=O)O [Palmitic acid]
Activity (μmol acyl-CoA/min.) (acyl-CoA synthetase [2]): 20.4 μmol acyl-CoA/min.

CCCCCC/C=C\CCCCCCCC(=O)O [Palmitoleic acid]
Activity (μmol acyl-CoA/min.) (acyl-CoA synthetase [4]): 19.8 μmol acyl-CoA/min.

CC(C)(CO)[C@@H](O)C(=O)NCCC(=O)NCCS [Pantetheine]
Km (acyl-CoA synthetase I [1]): 2500 µM | Vmax (acyl-CoA synthetase I [1]): 57%

CCCCCCCCCCCCCCC(=O)O [Pentadecanoic acid]
Activity (μmol acyl-CoA/min.) (acyl-CoA synthetase [2]): 18.0 μmol acyl-CoA/min.

CCCCCCCCCCCCC(=O)O [Tridecanoic acid]
Activity (μmol acyl-CoA/min.) (acyl-CoA synthetase [4]): 1.3 μmol acyl-CoA/min.

O=c1ccn([C@@H]2O[C@H](COP(=O)(O)OP(=O)(O)OP(=O)(O)O)[C@@H](O)[C@H]2O)c(=O)[nH]1 [UTP]
effectiveness as nucleoside-5'-triphosphate (acyl-CoA synthetase I [3]): essentially ineffective

Nc1ncnc2c1ncn2[C@@H]1O[C@H](COP(=O)(O)OP(=O)(O)CP(=O)(O)O)[C@@H](O)[C@H]1O [adenylyl (β,γ-methylene)diphosphonate]
effectiveness as nucleoside-5'-triphosphate (acyl-CoA synthetase I [3]): essentially ineffective

Nc1ncnc2c1ncn2[C@@H]1O[C@H](COP(=O)(O)OP(=O)(O)NP(=O)(O)O)[C@@H](O)[C@H]1O [adenylyl imidodiphosphonate]
effectiveness as nucleoside-5'-triphosphate (acyl-CoA synthetase I [3]): essentially ineffective

αATP
effectiveness as nucleoside-5'-triphosphate (acyl-CoA synthetase I [3]): effective | activity relative to that measured with ATP (acyl-CoA synthetase I [3]; nucleotide 7.5 mM): 78% | activity relative to that measured with ATP (acyl-CoA synthetase I [3]; nucleotide 15 mM): 61%

αTTP
effectiveness as nucleoside-5'-triphosphate (acyl-CoA synthetase I [3]): essentially ineffective

B1: acyl-CoA synthetase from E. coli: prior art enzyme purified from Escherichia coli by D. Samuel et al (protein, UniProt P69451 1-561, looked up)
Long-chain-fatty-acid--CoA …: MKKVWLNRYPADVPTEINPDRYQSLVDMFEQSVARYADQPAFVNMGEVMTFRKLEERSRAFAAYLQQGLGLKKGDRVALMMPNLLQYPVALFGILRAGMIVVNVNPLYTPRELEHQLNDSGASAIVIVSNFAHTLEKVVDKTAVQHVILTRMGDQLSTAKGTVVNFVVKYIKRLVPKYHLPDAISFRSALHNGYRMQYVKPELVPEDLAFLQYTGGTTGVAKGAMLTHRNMLANLEQVNATYGPLLHPGKELVVTALPLYHIFALTINCLLFIELGGQNLLITNPRDIPGLVKELAKYPFTAITGVNTLFNALLNNKEFQQLDFSSLHLSAGGGMPVQQVVAERWVKLTGQYLLEGYGLTECAPLVSVNPYDIDYHSGSIGLPVPSTEAKLVDDDDNEVPPGQPGELCVKGPQVMLGYWQRPDATDEIIKNGWLHTGDIAVMDEEGFLRIVDRKKDMILVSGFNVYPNEIEDVVMQHPGVQEVAAVGVPSGSSGEAVKIFVVKKDPSLTEESLVTFCRRQLTGYKVPKLVEFRDELPKSNVGKILRRELRDEARGKVDNKA
specific activity [6]: 106 mU/mg protein
